Source: ChEMBL document CHEMBL4308906, “Design and synthesis of selective CYP1B1 inhibitor via dearomatization of α-naphthoflavone” (Bioorg Med Chem, 2019)

Assays:
[1] = molecular target: T1, Cytochrome P450 1B1 (Homo sapiens, UniProt Q16678); assay: Inhibition of human recombinant CYP1B1 using 7-ethoxyresorufin as substrate after 30 mins in presence of NADPH by EROD assay
T1 sequence (Q16678 whole entry): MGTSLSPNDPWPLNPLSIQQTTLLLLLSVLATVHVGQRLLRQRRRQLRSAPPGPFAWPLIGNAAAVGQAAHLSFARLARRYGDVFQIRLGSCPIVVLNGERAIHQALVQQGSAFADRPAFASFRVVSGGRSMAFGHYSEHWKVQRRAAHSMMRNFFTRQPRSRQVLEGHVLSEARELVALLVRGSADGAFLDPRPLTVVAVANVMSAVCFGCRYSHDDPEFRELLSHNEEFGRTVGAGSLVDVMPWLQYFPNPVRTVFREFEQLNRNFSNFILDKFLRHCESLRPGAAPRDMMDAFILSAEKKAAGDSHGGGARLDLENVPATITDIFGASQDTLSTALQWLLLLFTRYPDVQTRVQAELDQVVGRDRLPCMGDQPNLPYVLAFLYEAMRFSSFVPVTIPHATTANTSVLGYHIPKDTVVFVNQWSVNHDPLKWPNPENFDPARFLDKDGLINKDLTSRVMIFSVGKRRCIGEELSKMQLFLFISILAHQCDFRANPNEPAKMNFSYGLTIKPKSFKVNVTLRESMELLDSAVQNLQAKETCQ

[2] = molecular target: T2, CYP1A2 (Homo sapiens, UniProt P05177); assay: Inhibition of human recombinant CYP1A2 using 7-ethoxyresorufin as substrate assessed as percent enzyme activity at 1 uM after 30 mins in presence of NADPH by EROD assay relative to control; format: ADME; set-up: scale not given: the % may be the effect or the level left; conditions: recombinant CYP1A2, probe 7-ethoxyresorufin, read-out: Activity
T2 sequence (P05177 whole entry): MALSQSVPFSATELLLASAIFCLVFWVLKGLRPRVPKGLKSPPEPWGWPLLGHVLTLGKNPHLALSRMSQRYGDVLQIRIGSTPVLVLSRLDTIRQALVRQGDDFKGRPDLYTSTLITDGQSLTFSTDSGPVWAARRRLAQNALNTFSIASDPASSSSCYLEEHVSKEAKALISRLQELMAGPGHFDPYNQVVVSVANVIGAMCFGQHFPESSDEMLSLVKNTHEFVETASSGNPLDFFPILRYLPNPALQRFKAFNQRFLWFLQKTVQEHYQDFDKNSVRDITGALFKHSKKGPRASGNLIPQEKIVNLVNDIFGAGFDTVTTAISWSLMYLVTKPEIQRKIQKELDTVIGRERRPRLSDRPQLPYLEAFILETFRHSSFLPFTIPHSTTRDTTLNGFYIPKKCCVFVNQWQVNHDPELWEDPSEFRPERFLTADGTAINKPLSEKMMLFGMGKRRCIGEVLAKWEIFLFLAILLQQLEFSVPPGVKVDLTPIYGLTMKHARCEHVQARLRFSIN

[3] = molecular target: T3, CYP1A1 (Homo sapiens, UniProt P04798); assay: Inhibition of human recombinant CYP1A1 using 7-ethoxyresorufin as substrate assessed as percent enzyme activity at 1 uM after 15 mins in presence of NADPH by EROD assay relative to control; format: ADME; set-up: scale not given: the % may be the effect or the level left; conditions: recombinant CYP1A1, probe 7-ethoxyresorufin, read-out: Activity
T3 sequence (P04798 whole entry): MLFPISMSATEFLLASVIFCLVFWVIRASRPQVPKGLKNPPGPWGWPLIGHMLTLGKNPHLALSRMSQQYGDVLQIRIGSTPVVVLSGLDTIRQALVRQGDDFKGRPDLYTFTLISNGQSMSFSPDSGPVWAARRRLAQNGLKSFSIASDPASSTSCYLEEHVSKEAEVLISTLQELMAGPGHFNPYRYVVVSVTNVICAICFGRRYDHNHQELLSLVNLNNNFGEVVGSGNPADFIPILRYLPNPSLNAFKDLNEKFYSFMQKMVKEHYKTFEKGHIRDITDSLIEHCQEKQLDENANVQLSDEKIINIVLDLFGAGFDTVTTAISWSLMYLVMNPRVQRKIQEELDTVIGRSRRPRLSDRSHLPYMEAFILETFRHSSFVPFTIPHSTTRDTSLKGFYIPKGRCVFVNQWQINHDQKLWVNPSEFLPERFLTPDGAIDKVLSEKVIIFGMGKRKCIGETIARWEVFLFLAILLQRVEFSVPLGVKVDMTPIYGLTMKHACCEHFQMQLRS

[4] = species: Homo sapiens; assay: Selectivity ratio of IC50 for human recombinant CYP1A1 to IC50 for human recombinant CYP1B1
[5] = molecular target: T4, Cytochrome P450 1A1 (Homo sapiens, UniProt P04798); assay: Inhibition of human recombinant CYP1A1 using 7-ethoxyresorufin as substrate after 15 mins in presence of NADPH by EROD assay; format: ADME
T4 sequence (P04798 whole entry): T3 sequence (P04798 whole entry)

[6] = species: Homo sapiens; assay: Selectivity ratio of IC50 for human recombinant CYP1A2 to IC50 for human recombinant CYP1B1
[7] = molecular target: T1, Cytochrome P450 1B1; assay: Inhibition of human recombinant CYP1B1 using 7-ethoxyresorufin as substrate assessed as percent enzyme activity at 1 uM after 30 mins in presence of NADPH by EROD assay relative to control; set-up: scale not given: the % may be the effect or the level left; conditions: read-out: Activity
[8] = molecular target: T5, Cytochrome P450 1A2 (Homo sapiens, UniProt P05177); assay: Inhibition of human recombinant CYP1A2 using 7-ethoxyresorufin as substrate after 30 mins in presence of NADPH by EROD assay; format: ADME
T5 sequence (P05177 whole entry): T2 sequence (P05177 whole entry)

[9] = molecular target: T1, Cytochrome P450 1B1; assay: Binding affinity to human C-terminal 4His-tagged CYP1B1 expressed in Escherichia coli DH5alpha assessed as spectral dissociation constant by spectrophotometric analysis; conditions: read-out: Ks

Row | Compound | IC50 [1] [µM] | activity at 0.5 h, 1 µM [2] [%] | activity at 0.25 h, 1 µM [3] [%] | Ratio IC50 [4] | IC50 [5] [µM] | Ratio IC50 [6] | activity at 0.5 h, 1 µM [7] [%] | IC50 [8] [µM] | Kd [9] [µM]
1 | [N-]=[N+]=N[C@H]1CC[C@H](c2cc(=O)c3ccc4ccccc4c3o2)CC1 | 0.135 | 46.5 | 39.5 | 7.7 | 1.04 | 8.8 | -1.8 | 1.19 | 5.4
2 | c1c[nH]cn1 [IMIDAZOLE] | – | – | – | – | – | – | – | – | 1260
3 | CC(=O)S[C@H]1CC[C@H](c2cc(=O)c3ccc4ccccc4c3o2)CC1 | 0.0294 | 45.4 | 1.1 | 0.54 | 0.0159 | 33.7 | -4.7 | 0.991 | 6.7
4 | O=c1cc([C@H]2CC[C@H](O)CC2)oc2c1ccc1ccccc12 | – | 76.2 | 72.7 | – | – | – | 51.3 | – | 62.7
5 | O=c1cc(-c2ccc(O)cc2)oc2c1ccc1ccccc12 | 0.0434 | 10.4 | 6.3 | 0.99 | 0.043 | 21 | 3.7 | 0.909 | –
6 | C=C=C[C@H]1CC[C@@H](c2cc(=O)c3ccc4ccccc4c3o2)CC1 | 0.0681 | 4.3 | 5.5 | 0.48 | 0.033 | – | 3.1 | – | 25.4
7 | CC(C)C1CCC(c2cc(=O)c3ccc4ccccc4c3o2)CC1 (mixture of isomers) | – | – | 48.3 | – | – | – | 27.9 | – | 124
8 | C#C[C@H]1CC[C@@H](c2cc(=O)c3ccc4ccccc4c3o2)CC1 | – | 21 | 11.3 | – | – | – | 0.9 | – | 7.3
9 | O=c1cc(C2=CCCCC2)oc2c1ccc1ccccc12 | – | 21.2 | 3.2 | – | – | – | -12.9 | – | 1.1
10 | [N-]=[N+]=NC1CCCC(c2cc(=O)c3ccc4ccccc4c3o2)C1 (mixture of isomers) | 0.0903 | 42.5 | 36.1 | – | – | – | -4 | – | –
11 | O=c1cc([C@H]2CC[C@@H](S)CC2)oc2c1ccc1ccccc12 | 0.0388 | – | 3.9 | 1.97 | 0.0762 | – | 0.5 | – | 9.4
12 | O=c1cc(C2CC=CCC2)oc2c1ccc1ccccc12 (stereo not drawn) | – | 36.9 | 38.1 | – | – | – | 6.5 | – | 3.1
13 | CC(=O)S[C@H]1CC[C@@H](c2cc(=O)c3ccc4ccccc4c3o2)CC1 | 0.0243 | 42.7 | 3.8 | 2.7 | 0.065 | – | -1.3 | – | 4
14 | O=c1cc([C@H]2C[C@H]3C=C[C@@H]2C3)oc2c1ccc1ccccc12 | – | 0 | 43 | – | – | – | 74 | – | –
15 | CN(C)C(=S)Oc1cccc(-c2cc(=O)c3ccc4ccccc4c3o2)c1 | – | 75.4 | 3.1 | – | – | – | 2.5 | – | –
16 | O=c1cc(C2CCCC2)oc2c1ccc1ccccc12 | – | 34.5 | 28 | – | – | – | 55.3 | – | –
17 | CC1CCC(c2cc(=O)c3ccc4ccccc4c3o2)CC1 (mixture of isomers) | – | 63 | 50.2 | – | – | – | 23.9 | – | 5.7
18 | CC(=O)SC1CCCC(c2cc(=O)c3ccc4ccccc4c3o2)C1 (mixture of isomers) | – | 0.5 | 31.7 | – | – | – | 4.4 | – | –
19 | CN(C)C(=O)Sc1ccc(-c2cc(=O)c3ccc4ccccc4c3o2)cc1 | – | 91.9 | 10.3 | – | – | – | 12.3 | – | –
20 | O=c1cc(C2CCCC(S)C2)oc2c1ccc1ccccc12 (mixture of isomers) | 0.0661 | – | 0 | 2.02 | 0.134 | – | -2.5 | – | 8.1
21 | COc1cccc(-c2cc(=O)c3ccc4ccccc4c3o2)c1 | – | 6.1 | 8.7 | – | – | – | 1.9 | – | –
22 | C#C[C@H]1CC[C@H](c2cc(=O)c3ccc4ccccc4c3o2)CC1 | – | 8.8 | 0.5 | – | – | – | 15 | – | 264
23 | O=c1cc([C@H]2CC[C@@H](O)CC2)oc2c1ccc1ccccc12 | – | 77.3 | 87.3 | – | – | – | 90.4 | – | > 1220
24 | NC1CCCC(c2cc(=O)c3ccc4ccccc4c3o2)C1 (mixture of isomers) | – | 44.5 | 80.9 | – | – | – | 64.7 | – | 2.9
25 | N[C@H]1CC[C@@H](c2cc(=O)c3ccc4ccccc4c3o2)CC1 | – | 74.5 | 73.7 | – | – | – | 81.6 | – | –
